Test results published in PMC8219027, “A small-molecule inhibitor of the BRCA2-RAD51 interaction modulates RAD51 assembly and potentiates DNA damage-induced cell death” (Cell Chemical Biology, 2021).
Read-outs that look alike come from different tables or passages of the source.

Columns and labels:
[1] = tested on: HCT116 cells (BRCA2 wild-type); experiment: SRB growth inhibition assay, combination of CAM833 and PARP1 inhibitor AZD2461; assay type: cell-based, human; conditions: HCT116, fixed dose 0.1 μM or 1 μM, 96 h
Experimental: (§1) Adherent cell lines (HCT116 and A549 cells) were seeded into flat-bottomed tissue culture 96-well plates in a volume of 150 μL of growth medium. HCT116 cells were seeded at 750 cells per well and A549 cells were seeded at 1000 cells per well. After 24 hours, compounds dissolved in DMSO were diluted in growth medium and were added to cells such that the final DMSO concentration was 1% (v/v) and the final volume in the well was 200 μL. Cells were then incubated in the presence of compound for 96 hours before fixation.
(§2) Medium was removed from cells and 100 μL of cold 1% (v/v) trichloroacetic acid was added for 30 minutes at 4 degrees. The plates were washed three times in tap water and left to dry at room temperature. The fixed cells were stained in a 0.057% sulphorodamine B/1% acetic acid solution (w/v) and incubated at room temperature with agitation for 30 minutes after which the dye was removed and the plates washed in 1% (v/v) acetic acid and left to dry. The dye was then solubilised in 10 mM Tris solution (pH8) and incubated for 30 minutes under agitation. The plates were then read on a PHERAstar plus plate reader (BMG Labtech) using the fluorescence intensity module (540-590 nm). Growth inhibition was calculated relative to DMSO controls and GI50 values were calculated using Graphpad Prism.
For the PARP inhibitor experiments, the SRB method was used as described above to measure growth inhibition with the exception that cells were seeded into 150 μl medium and then a combination of either 25 μl of CAM833, AZD2461 (SelleckChem; #S7029) or DMSO was added to give a total volume of 200 ul in the well.

[2] = tested on: HCT116 cells; experiment: SRB growth inhibition assay; assay type: cell-based, human; conditions: SRB 96 h, Figure 6D (cell line not given)
Experimental: as §1, §2

[3] = molecular target: T1, HumRadA2 (Pyrococcus furiosus, UniProt O74036, D220A/E219S/I169M/K221M/V202Y/Y201A); experiment: Isothermal titration calorimetry (ITC) against HumRadA2; assay type: binding, Pyrococcus furiosus (humanised RadA)
Experimental: ITC was performed using a Microcal iTC200 instrument at 25°C. Experiments typically involved titrating a 10-fold excess of ligand in the injection syringe against the protein ([HumRadA2] = 60 μM or [ChimRAD51] = 20 μM) in either 200 mM Tris buffer at pH 7.5 and 100 mM NaCl (HumRadA2) or 20 mM potassium phosphate at pH 8.0 and 192 mM KCl (ChimRAD51). Titrations were typically performed with 5-10% DMSO and care was taken to ensure that the DMSO concentrations in the protein and ligand solutions were well matched. The raw ITC data were fitted using a single-site binding model in Microcal ITC LLC data analysis program in the Origin 7.0 package to derive the dissociation constant, stoichiometry and ΔH of binding. […]

[4] = Aqueous solubility; conditions: for profiling in cell-based assays
[5] = molecular target: T1, HumRadA2; conditions: ref Scott et al., 2016; read-out: Kd against HumRadA2 by ITC; cited from earlier work
[6] = molecular target: ChimRAD51; set-up: method as in Moschetti et al., 2016; conditions: direct binding of BRC4 peptide; ref Moschetti et al., 2016; read-out: Kd of binding to ChimRAD51 by FP; cited from earlier work
[7] = molecular target: ChimRAD51; set-up: method as in Moschetti et al., 2016; conditions: ref Moschetti et al., 2016; read-out: Kd of binding to ChimRAD51 by ITC; cited from earlier work
[8] = molecular target: ChimRAD51 (chimeric RAD51/RadA protein) (Pyrococcus furiosus | human); experiment: fluorescence polarisation; competition: 10 nM Alexa Fluor 488-labelled BRC4 peptide and 50 nM ChimRAD51 (about 80-90% saturation), increasing concentration of competitor; isotherms fitted with the expression of Wang (1995)

Question: Which “growth inhibition by AZD2461 alone (in words)” value [1] does the source give for COC1CCN(C(=O)c2cc(Cc3n[nH]c(=O)c4ccccc34)ccc2F)CC1 [AZD2461, reference compound] here?
Answer: little effect

Question: Which IC50 ([2]; 0 Gy IR) does the source give for N.N.O=C([O-])C1(C(=O)[O-])CCC1.[Pt+2] [Carboplatin, reference compound] here?
Answer: 9.9 µM

Question: What about the IC50 ([2]; 1 Gy IR) of the same molecule?
Answer: 9 µM

Question: What about the IC50 ([2]; 2 Gy IR) of the same molecule?
Answer: 10.6 µM

Question: And the IC50 ([2]; 3 Gy IR)?
Answer: 11.1 µM

Question: With Nc1cc2ccccc2cc1C(=O)O [Compound 3, 3-amino-2-naphthoic acid] as the molecule, how does the Kd [3] read?
Answer: 1300 µM

Question: For C[C@H](NC(=O)[C@@H]1CCCN1C(=O)[C@H](Cc1c[nH]cn1)NC(=O)c1cc2ccccc2cc1N)C(N)=O [Compound 4], which Kd [3] is on record?
Answer: 3 µM

Question: Which “solubility in aqueous media (in words)” value [4] does the source give for C[C@H](NC(=O)c1ccc2ccccc2c1)C(=O)N1CCC[C@H]1C(=O)N[C@@H](C)c1ccccc1 [Compound 5, (S)-1-((2-Naphthoyl)-L-alanyl)-N-((S)-1-phenylethyl)pyrrolidine-2-carboxamide] here?
Answer: too insoluble

Question: And the Kd [3]?
Answer: 0.22 µM

Question: Which Kd [5] does the source give for Ac-FHTA-NH2 [Compound 1] here?
Answer: 280 µM

Question: Which Kd [6] does the source give for “BRC4 peptide: BRC4 repeat peptide of BRCA2 (CKEPTLLGFHTASGKKVKIAKESLDKVKNLFDEKEQ; Alexa Fluor 488 (maleimide dye) on the additional N-terminal cysteine)” here?
Answer: 0.004 µM

Question: What about the Kd [7] of the same molecule?
Answer: 0.006 µM

Question: Which Kd [8] does the source give for “N-terminal "FxxA" half of the BRC4 repeat (FxxA half-peptide)” here?
Answer: 36 µM
